From the NIST ThermoML archive (doi:10.1016/j.jct.2005.08.015)

Assay: of the first substance listed, at infinite dilution; xn = mol fraction of the nth substance listed
Conditions: Liquid, vibrating tube densimetry, x1 = 0

OCCO [1,2-ethanediol] + O
Conditions | partial molar volume [m3/mol]
298.21 K, 640 kPa | 5.462e-05
298.21 K, 29790 kPa | 5.452e-05
298.23 K, 15130 kPa | 5.457e-05
318.17 K, 470 kPa | 5.548e-05
318.17 K, 14770 kPa | 5.53e-05
318.17 K, 30150 kPa | 5.516e-05
338.16 K, 440 kPa | 5.63e-05
338.16 K, 15150 kPa | 5.604e-05
338.16 K, 30360 kPa | 5.584e-05
373.12 K, 30010 kPa | 5.724e-05
373.14 K, 15170 kPa | 5.754e-05
373.15 K, 1960 kPa | 5.78e-05
408.15 K, 30070 kPa | 5.89e-05
408.16 K, 1760 kPa | 5.969e-05
408.16 K, 15000 kPa | 5.932e-05
441.98 K, 1950 kPa | 6.178e-05
442.03 K, 15670 kPa | 6.123e-05
442.04 K, 29810 kPa | 6.072e-05
473.15 K, 1900 kPa | 6.408e-05
473.15 K, 30250 kPa | 6.266e-05
473.16 K, 15750 kPa | 6.337e-05
498.15 K, 15970 kPa | 6.53e-05
498.15 K, 30110 kPa | 6.448e-05
498.16 K, 2930 kPa | 6.621e-05
523.16 K, 5030 kPa | 6.856e-05
523.16 K, 16160 kPa | 6.754e-05
523.16 K, 30260 kPa | 6.653e-05
548.17 K, 7030 kPa | 7.13e-05
548.18 K, 18020 kPa | 6.994e-05
548.18 K, 30300 kPa | 6.88e-05
573.14 K, 30090 kPa | 7.119e-05
573.18 K, 10040 kPa | 7.399e-05
573.19 K, 15080 kPa | 7.318e-05
573.19 K, 19910 kPa | 7.25e-05
573.23 K, 24730 kPa | 7.182e-05

CC(O)CO (stereo unspecified) [1,2-propanediol] + O
Conditions | partial molar volume [m3/mol]
298.21 K, 640 kPa | 7.123e-05
298.22 K, 15160 kPa | 7.119e-05
298.22 K, 29790 kPa | 7.112e-05
318.17 K, 500 kPa | 7.214e-05
318.17 K, 14770 kPa | 7.192e-05
318.17 K, 30140 kPa | 7.175e-05
338.16 K, 440 kPa | 7.321e-05
338.16 K, 15160 kPa | 7.291e-05
338.16 K, 30320 kPa | 7.263e-05
373.13 K, 15150 kPa | 7.509e-05
373.13 K, 29980 kPa | 7.46e-05
373.14 K, 2010 kPa | 7.548e-05
408.15 K, 29980 kPa | 7.718e-05
408.16 K, 1760 kPa | 7.843e-05
408.16 K, 15000 kPa | 7.781e-05
441.99 K, 1840 kPa | 8.185e-05
442.03 K, 15650 kPa | 8.093e-05
442.03 K, 29800 kPa | 8.01e-05
473.15 K, 1890 kPa | 8.576e-05
473.15 K, 15760 kPa | 8.445e-05
473.16 K, 30230 kPa | 8.325e-05
498.15 K, 2930 kPa | 8.947e-05
498.15 K, 15970 kPa | 8.777e-05
498.15 K, 30110 kPa | 8.627e-05
523.16 K, 4980 kPa | 9.38e-05
523.16 K, 16130 kPa | 9.172e-05
523.16 K, 30320 kPa | 8.966e-05
548.17 K, 7020 kPa | 9.914e-05
548.18 K, 18020 kPa | 9.621e-05
548.18 K, 30440 kPa | 9.367e-05
573.14 K, 30360 kPa | 9.86e-05
573.18 K, 10120 kPa | 0.000106
573.19 K, 19990 kPa | 0.0001018

OCC(O)CO [glycerol] + O
Conditions | partial molar volume [m3/mol]
298.21 K, 640 kPa | 7.093e-05
298.21 K, 29800 kPa | 7.103e-05
298.22 K, 15170 kPa | 7.097e-05
318.17 K, 470 kPa | 7.205e-05
318.17 K, 14770 kPa | 7.195e-05
318.17 K, 30260 kPa | 7.194e-05
338.16 K, 440 kPa | 7.304e-05
338.16 K, 15150 kPa | 7.288e-05
338.16 K, 30360 kPa | 7.277e-05
373.13 K, 15180 kPa | 7.444e-05
373.13 K, 30110 kPa | 7.428e-05
373.14 K, 1980 kPa | 7.463e-05
408.15 K, 30120 kPa | 7.586e-05
408.16 K, 1830 kPa | 7.644e-05
408.16 K, 14970 kPa | 7.616e-05
441.99 K, 1850 kPa | 7.825e-05
442.03 K, 15670 kPa | 7.795e-05
442.13 K, 29820 kPa | 7.764e-05
473.15 K, 1960 kPa | 8e-05
473.15 K, 15740 kPa | 7.962e-05
473.16 K, 30290 kPa | 7.92e-05
498.15 K, 3000 kPa | 8.129e-05
498.15 K, 30210 kPa | 8.047e-05
498.16 K, 15930 kPa | 8.087e-05
523.15 K, 16150 kPa | 8.212e-05
523.16 K, 5030 kPa | 8.238e-05
523.16 K, 30280 kPa | 8.184e-05
548.17 K, 7070 kPa | 8.292e-05
548.18 K, 18040 kPa | 8.309e-05
548.18 K, 30570 kPa | 8.347e-05
573.14 K, 30040 kPa | 8.344e-05
573.18 K, 10150 kPa | 8.171e-05
573.19 K, 15080 kPa | 8.249e-05
573.19 K, 19940 kPa | 8.3e-05
573.25 K, 24690 kPa | 8.32e-05

OCCCO [propan-1,3-diol] + O
Conditions | partial molar volume [m3/mol]
298.22 K, 640 kPa | 7.193e-05
298.22 K, 29780 kPa | 7.167e-05
298.23 K, 15160 kPa | 7.183e-05
318.17 K, 480 kPa | 7.262e-05
318.17 K, 14770 kPa | 7.234e-05
318.17 K, 30240 kPa | 7.212e-05
338.16 K, 440 kPa | 7.345e-05
338.16 K, 15130 kPa | 7.315e-05
338.16 K, 30290 kPa | 7.289e-05
373.13 K, 30110 kPa | 7.451e-05
373.14 K, 15170 kPa | 7.496e-05
373.16 K, 1960 kPa | 7.536e-05
408.15 K, 14940 kPa | 7.727e-05
408.15 K, 30010 kPa | 7.668e-05
408.16 K, 1870 kPa | 7.783e-05
442.02 K, 1820 kPa | 8.074e-05
442.03 K, 15700 kPa | 7.994e-05
442.08 K, 29800 kPa | 7.924e-05
473.15 K, 1940 kPa | 8.402e-05
473.16 K, 15710 kPa | 8.291e-05
473.16 K, 30280 kPa | 8.188e-05
498.15 K, 15940 kPa | 8.561e-05
498.16 K, 2960 kPa | 8.701e-05
498.16 K, 30110 kPa | 8.438e-05
523.16 K, 5030 kPa | 9.047e-05
523.16 K, 16160 kPa | 8.885e-05
523.16 K, 30260 kPa | 8.723e-05
548.18 K, 7070 kPa | 9.443e-05
548.18 K, 18040 kPa | 9.233e-05
548.18 K, 30580 kPa | 9.05e-05
573.17 K, 30240 kPa | 9.414e-05
573.18 K, 10100 kPa | 9.925e-05
573.19 K, 19920 kPa | 9.645e-05
